For 39 compounds, EC50 and Kd results are on record in patent publication US20260200890A1, “ADAR1 INHIBITORS AND METHODS OF USING THE SAME” (AVAMMUNE THERAPEUTICS INC., priority 2022, published 2026).

The target in experiment [1] is T1, ADAR1 (Homo sapiens, UniProt P55265).
T1 construct: endogenous in cells; host or cells: p110 KO A549 dual cells
T1 sequence (P55265 1-1226): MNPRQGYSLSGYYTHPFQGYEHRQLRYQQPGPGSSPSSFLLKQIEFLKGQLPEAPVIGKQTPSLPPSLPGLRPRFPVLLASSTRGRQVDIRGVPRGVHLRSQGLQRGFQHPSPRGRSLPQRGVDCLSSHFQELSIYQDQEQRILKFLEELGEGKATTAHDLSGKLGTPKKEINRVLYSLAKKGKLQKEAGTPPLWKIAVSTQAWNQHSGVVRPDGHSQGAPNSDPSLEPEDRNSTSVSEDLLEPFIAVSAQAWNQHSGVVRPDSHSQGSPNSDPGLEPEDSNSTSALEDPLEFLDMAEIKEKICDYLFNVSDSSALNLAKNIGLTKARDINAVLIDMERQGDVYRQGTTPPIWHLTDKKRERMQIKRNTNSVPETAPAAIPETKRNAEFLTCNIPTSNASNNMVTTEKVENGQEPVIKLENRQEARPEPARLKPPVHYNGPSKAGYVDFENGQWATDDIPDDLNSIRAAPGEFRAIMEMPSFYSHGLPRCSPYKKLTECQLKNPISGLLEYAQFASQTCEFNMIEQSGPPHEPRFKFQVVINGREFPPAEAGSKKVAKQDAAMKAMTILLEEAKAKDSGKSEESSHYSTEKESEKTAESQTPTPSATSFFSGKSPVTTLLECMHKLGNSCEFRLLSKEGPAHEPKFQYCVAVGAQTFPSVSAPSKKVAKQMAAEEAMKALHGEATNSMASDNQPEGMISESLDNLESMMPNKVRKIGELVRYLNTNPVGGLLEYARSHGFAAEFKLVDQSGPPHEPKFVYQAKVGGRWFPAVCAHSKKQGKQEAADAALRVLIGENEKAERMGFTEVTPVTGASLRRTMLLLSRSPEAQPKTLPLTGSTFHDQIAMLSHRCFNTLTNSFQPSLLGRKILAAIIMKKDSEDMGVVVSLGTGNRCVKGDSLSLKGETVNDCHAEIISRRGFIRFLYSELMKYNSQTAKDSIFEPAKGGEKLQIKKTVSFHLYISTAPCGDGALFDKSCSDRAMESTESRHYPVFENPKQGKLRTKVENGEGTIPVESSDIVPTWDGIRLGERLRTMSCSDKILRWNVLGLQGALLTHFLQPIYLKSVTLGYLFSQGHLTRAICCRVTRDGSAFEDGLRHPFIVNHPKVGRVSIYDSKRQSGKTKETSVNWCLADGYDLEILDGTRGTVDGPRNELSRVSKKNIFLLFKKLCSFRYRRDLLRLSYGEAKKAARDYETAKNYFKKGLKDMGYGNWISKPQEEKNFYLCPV
Nature of the experiment: ADAR1 Inhibition Assay (IFN fold-induction, Quanti-Luc luminescence, p110 KO A549 dual cells). In kind it is cell-based. Conditions: IFN fold-induction vs DMSO, 24 and 48 h. In a few lines:
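p110 KO A549 dual cells (20,000/well) in supplemented DMEM, treated next day with compound at 1% final DMSO for 24 and 48 h at 37 °C, 5% CO2. Supernatant luminescence read with Quanti-Luc; IFN fold-induction = sample RLU/mean DMSO RLU, used for EC50.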

For experiment [2], the target named is T2, Zα domain of ADAR1 p150 (Homo sapiens, UniProt P55265).
T2 construct: 10 μg/ml of Zα domain of ADAR1 was immobilized on CM5 chip using anti-HIS antibody; made in house
T2 sequence (P55265 133-199 limits assumed): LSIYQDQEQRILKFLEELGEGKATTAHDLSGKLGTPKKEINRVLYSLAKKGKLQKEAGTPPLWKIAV
Briefly: SPR binding assay. The settings on record: 6× his tag Zα domain immobilized on CM5 chip, analyte 0-25 μM. As for the experimental part:
6× his tag Za domain of ADAR1 p150 was purified using bacterial purification system. Protein was isolated from supernatant of cell lysate using Ni-NTA resin. For binding assay using SPR, 10 μg/ml of Zα domain of ADAR1 was immobilized on CM5 chip using anti-HIS antibody. Binding was quantified using the following condition below: • Analyte: 25, 12.5, 6.25, 3.125, 1.56, 0.78, 0 μM • Contact time—60 seconds, • Dissociation time—320 seconds • Flow rate—30 μL/minute Running buffer-PBSP+5% DMSO • After curve fitting, Kd values for synthesized compounds was quantified using the instrument software.
(In general: Surface plasmon resonance follows binding to a sensor surface in real time, without labels.)

Each structure is given as a SMILES string.

In general, EC50 refers to the midpoint of the concentration-response curve. A lower EC50 goes with greater potency. The term Kd denotes the constant that tells how readily two partners part at equilibrium. Read a high Kd as a looser complex.

The compound `CCOC(=O)c1cc(-c2ccccc2)sc1NC(=O)CNC(=O)Cc1cccc(P(=O)(O)O)c1` [Compound 350] came in with an EC50 in experiment [1] of more than 100 µM. The compound further returned a Kd in experiment [2] not above 1 µM.
In the same order, the values of `CCOC(=O)c1cc(-c2ccccc2)sc1NC(=O)CNC(=O)Cc1ccc(S(N)(=O)=O)cc1` [Compound 363] are more than 100 µM and not above 1 µM.
The like results for `CCOC(=O)c1cc(-c2ccccc2)sc1NC(=O)COC(=O)C1CCCC(NS(C)(=O)=O)C1` (stereo not drawn) [Compound 150] were, in that order, more than 100 µM and more than 25 µM.
In the same order, the values of `CCOC(=O)c1cc(-c2ccccc2)sc1NC(=O)COC(=O)c1ccc2c(c1)OCCO2` [Compound 163] are more than 100 µM and not above 1 µM.
`CCOC(=O)c1cc(-c2ccccc2)sc1NC(=O)CNC(=O)c1cccc(P(=O)(OCC)OCC)c1` [Compound 344]: in experiment [1], the EC50 was more than 100 µM. The compound further had a Kd in experiment [2] of more than 25 µM.
In the same order, the values of `CCOC(=O)c1cc(-c2ccccc2)sc1NC(=O)CNC(=O)Cc1ccc(S(C)(=O)=O)cc1` [Compound 327] are more than 100 µM and not above 1 µM.
`CCOC(=O)c1sc(-c2ccccc2)cc1NC(=O)COC(=O)c1cccc(P(=O)(O)O)c1` [Compound 400] returned an EC50 in experiment [1] of more than 100 µM. The compound also gave a dissociation constant Kd in experiment [2] of 1 to 10 µM.
The compound `CCOC(=O)c1cc(-c2ccccc2)sc1NC(=O)c1ccc(-c2cccc(NS(C)(=O)=O)c2)nc1` [Compound 253] had an EC50 in experiment [1] of more than 100 µM. For the same compound, the Kd in experiment [2] was not above 1 µM.
In the same order, the values of `CCOC(=O)c1cc(-c2ccccc2)sc1NC(=O)COC(=O)c1ccc(F)c(NS(C)(=O)=O)c1` [Compound 137] are more than 100 µM and more than 25 µM.
In the same order, the values of `CCOC(=O)c1cc(-c2ccccc2)sc1NC(=O)COC(=O)c1cccc(P(=O)(OCC)OCC)c1` [Compound 343] are more than 100 µM and not above 1 µM.
The like results for `CCOC(=O)c1cc(-c2ccccc2)sc1NC(=O)Cn1cc(CNC(=O)c2cccc(P(=O)(O)O)c2)nn1` [Compound 409] were, in that order, more than 100 µM and not above 1 µM.
Take `CCOC(=O)c1cc(-c2ccccc2)sc1NC(=O)CNC(=O)CCc1cccc(NS(C)(=O)=O)c1` [Compound 365]: in experiment [1], the EC50 is more than 100 µM. Moreover, in experiment [2], the dissociation constant (Kd) is not above 1 µM.
In the same order, the values of `CCOC(=O)c1cc(-c2ccccc2)sc1NC(=O)CNC(=O)Cc1cccc(Br)c1` [Compound 330] are more than 100 µM and not above 1 µM.
In the same order, the values of `CCOC(=O)c1cc(-c2ccccc2)sc1NC(=O)Cn1cc(C(=O)Nc2cccc(P(=O)(O)O)c2)nn1` [Compound 420] are more than 100 µM and not above 1 µM.
The like results for `CCOC(=O)c1cc(-c2ccccc2)sc1NC(=O)[C@H]1CCN(C(=O)c2cccc(S(N)(=O)=O)c2)C1` [Compound 426] were, in that order, more than 100 µM and not above 1 µM.
Take `CCOC(=O)c1cc(-c2ccccc2)sc1NC(=O)CN(C)Cc1cccc(NS(C)(=O)=O)c1` [Compound 180]: the concentration giving a half-maximal response (EC50) in experiment [1] is more than 100 µM. The Kd in experiment [2] was not above 1 µM.
The like results for `CCOC(=O)c1cc(-c2ccccc2)sc1NC(=O)COc1cccc(NS(C)(=O)=O)c1` [Compound 147] were, in that order, more than 100 µM and not above 1 µM.
The like results for `CCOC(=O)c1cc(-c2ccccc2)sc1NC(=O)CNC(=O)Cc1ccc(Cl)c(NS(C)(=O)=O)c1` [Compound 366] were, in that order, more than 100 µM and not above 1 µM.
The like results for `CCOC(=O)c1cc(-c2ccccc2)sc1NC(=O)CNC(=O)c1cccc(Br)c1` [Compound 358] were, in that order, more than 100 µM and not above 1 µM.
Consider `CCOC(=O)c1cc(-c2ccccc2)sc1C(=O)CNC(=O)c1cccc(NS(C)(=O)=O)c1` [Compound 292], for which the EC50 in experiment [1] was more than 100 µM. In experiment [2], this compound had a Kd not above 1 µM.
In experiment [1], `CCOC(=O)c1cc(-c2ccccc2)sc1NC(=O)COC(=O)c1cccc(C(F)(F)F)c1` [Compound 70] came in with an EC50 of more than 100 µM. Moreover, the Kd in experiment [2] was more than 25 µM.
The like results for `CS(=O)(=O)Nc1cccc(C(=O)OCc2nc(=O)c3cc(-c4ccccc4)sc3[nH]2)c1` [Compound 241] were, in that order, more than 100 µM and not above 1 µM.
The like results for `CCOC(=O)c1cc(N)nn1C(=O)COC(=O)c1cccc(NS(C)(=O)=O)c1` [Compound 346] were, in that order, more than 100 µM and not above 1 µM.
Compound `CCOC(=O)c1cc(-c2ccccc2)sc1NC(=O)[C@H]1CCN(C(=O)c2cccc(S(=O)(=O)NC(C)=O)c2)C1` [Compound 428] returned a concentration giving a half-maximal response (EC50) in experiment [1] of more than 100 µM. This compound had a Kd in experiment [2] not above 1 µM.
The like results for `CS(=O)(=O)Nc1cccc(C(=O)OCC(=O)Nc2nc3ccccc3o2)c1` [Compound 270] were, in that order, more than 100 µM and not above 1 µM.
In the same order, the values of `CCOC(=O)c1cc(-c2ccccc2)[nH]c1NC(=O)COC(=O)c1cccc(P(=O)(OCC)OCC)c1` [Compound 349] are more than 100 µM and more than 25 µM.
In the same order, the values of `CCOC(=O)c1cc(-c2ccccc2)sc1NC(=O)COC(=O)c1cccc(NS(C)(=O)=O)c1` [Compound 121] are more than 100 µM and not above 1 µM.
`CCOC(=O)c1cc(-c2ccccc2)sc1NC(=O)Cn1cc(-c2cccc(S(N)(=O)=O)c2)nn1` [Compound 427]: the EC50 in experiment [1] is more than 100 µM. The Kd in experiment [2] is not above 1 µM.
Compound `CCOC(=O)c1cc(-c2ccccc2)sc1NC(=O)COC(=O)C1CN(S(C)(=O)=O)CCO1` (stereo not drawn) [Compound 172] came in with an EC50 in experiment [1] of more than 100 µM. Also, the Kd in experiment [2] is not above 1 µM.
In the same order, the values of `CCOC(=O)c1cc(-c2ccccc2)[nH]c1NC(=O)[C@@H]1CCN(C(=O)c2cccc(P(=O)(OC)OCC)c2)C1` (stereo partly drawn) [Compound 403] are 50 to 100 µM and more than 25 µM.
The like results for `CCOC(=O)c1cc(-c2ccccc2)sc1NC(=O)CNC(=O)Cc1cccc(NS(C)(=O)=O)c1` [Compound 310] were, in that order, not above 25 µM and not above 1 µM.
In the same order, the values of `CCOC(=O)c1nc(-c2ccccc2)sc1NC(=O)COC(=O)c1cccc(NS(C)(=O)=O)c1` [Compound 144] are more than 100 µM and not above 1 µM.
In turn, `CCOC(=O)c1cc(-c2ccccc2)sc1NC(=O)COC(=O)c1ccc(P(=O)(OCC)OCC)cc1` [Compound 421] yielded an EC50 in experiment [1] of more than 100 µM. Besides, in experiment [2], the Kd is not above 1 µM.
In the same order, the values of `CCOC(=O)c1cc(-c2ccccc2)sc1NC(=O)COC(=O)c1cccc(S(=O)(=O)NC(C)=O)c1` [Compound 399] are more than 100 µM and not above 1 µM.
In the same order, the values of `CCOC(=O)c1cc(-c2ccccc2)ccc1NC(=O)COC(=O)c1cccc(NS(C)(=O)=O)c1` [Compound 171] are more than 100 µM and more than 25 µM.
The like results for `CCOC(=O)c1cc(-c2ccccc2)sc1NC(=O)COC(=O)c1cccc(NS(=O)(=O)C2CCCCC2)c1` [Compound 132] were, in that order, more than 100 µM and not above 1 µM.
Turning to `CCOC(=O)c1sc(NC(=O)COC(=O)c2cccc(P(=O)(OCC)OCC)c2)nc1-c1ccccc1` [Compound 356], in experiment [1], the EC50 was more than 100 µM. Also, in experiment [2], the Kd was more than 25 µM.
The like results for `CCOC(=O)c1cc(-c2ccccc2)sc1NC(=O)[C@H]1CCN(Cc2cccc(P(=O)(O)O)c2)C1` [Compound 397] were, in that order, more than 100 µM and not above 1 µM.
In the same order, the values of `CCOC(=O)c1cc(-c2ccccc2)sc1NC(=O)[C@@H]1CCN(Cc2cccc(P(=O)(O)O)c2)C1` [Compound 398] are more than 100 µM and more than 25 µM.
